Molecular target: T1, USP28 (USP28-5(1-1077)-TEV-6*His; LifeSensors) (Homo sapiens, UniProt Q96RU2)
T1 construct: construct USP28 (USP28-5(1-1077)-TEV-6*His; LifeSensors); TEV cleavage site (C); 6xHis (C); purchased LifeSensors
T1 sequence (Q96RU2 1-1077): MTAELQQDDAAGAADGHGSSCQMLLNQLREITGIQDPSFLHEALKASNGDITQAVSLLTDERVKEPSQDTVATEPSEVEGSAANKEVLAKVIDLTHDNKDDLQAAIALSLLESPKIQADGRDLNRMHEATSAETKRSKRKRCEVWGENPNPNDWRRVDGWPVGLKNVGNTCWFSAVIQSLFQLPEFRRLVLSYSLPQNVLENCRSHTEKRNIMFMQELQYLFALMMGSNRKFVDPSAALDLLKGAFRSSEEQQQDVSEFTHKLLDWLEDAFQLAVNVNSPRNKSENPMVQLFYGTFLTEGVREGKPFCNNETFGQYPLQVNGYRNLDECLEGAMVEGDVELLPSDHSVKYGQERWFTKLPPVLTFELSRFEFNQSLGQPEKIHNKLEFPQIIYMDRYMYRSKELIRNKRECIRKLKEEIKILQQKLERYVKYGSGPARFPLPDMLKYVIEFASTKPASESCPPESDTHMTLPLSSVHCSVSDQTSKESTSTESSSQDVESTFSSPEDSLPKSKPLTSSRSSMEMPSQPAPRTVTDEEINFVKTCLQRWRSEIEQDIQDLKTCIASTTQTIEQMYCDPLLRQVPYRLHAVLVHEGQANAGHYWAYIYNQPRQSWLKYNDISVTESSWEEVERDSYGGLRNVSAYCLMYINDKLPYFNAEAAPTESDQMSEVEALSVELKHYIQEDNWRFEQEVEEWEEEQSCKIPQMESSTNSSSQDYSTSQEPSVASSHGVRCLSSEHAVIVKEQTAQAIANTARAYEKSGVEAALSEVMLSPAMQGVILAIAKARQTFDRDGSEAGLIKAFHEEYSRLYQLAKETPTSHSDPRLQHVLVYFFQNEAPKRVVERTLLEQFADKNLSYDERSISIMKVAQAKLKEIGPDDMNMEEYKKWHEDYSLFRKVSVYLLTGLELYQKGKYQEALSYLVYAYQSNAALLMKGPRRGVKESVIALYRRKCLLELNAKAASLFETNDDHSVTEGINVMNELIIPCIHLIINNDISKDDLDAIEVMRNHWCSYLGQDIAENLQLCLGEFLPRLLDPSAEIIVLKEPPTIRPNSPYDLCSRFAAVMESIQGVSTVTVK
Experiment: Ubiquitin-Rhodamine 110 Assay for USP28 Activity, Example A-1(b)
Assay type: biochemical
Conditions: Ubiquitin-Rhodamine 110 assay, Example A-1(b)
Procedure, shortened: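 Single-point screening used 10 μM compound with 90 min room-temperature incubation; follow-up dose-responses (25 μM top, 3-fold) used 75 pM USP28 1-1077 construct, 30 min compound preincubation, 25 nM Ub-Rh110, 20 min reaction, citric acid quench. Rh110 fluorescence normalised to no-enzyme and DMSO controls; IC50 from 4-parameter logistic fit.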

## Cc1ccc2c(N)c(C(=O)N[C@H]3COc4cc(N5CCNCC5)cc(F)c4C3)oc2n1 [Example 169, 3-amino-N-[(3R)-5-fluoro-7-(piperazin-1-yl)-3,4-dihydro-2H-1-benzopyran-3-yl]-6-methylfuro[2,3-b]pyridine-2-carboxamide]
  USP28 A-1(b) IC50 range: + (>2 μM)

— US11524966B1 (Valo Early Discovery, Inc., priority 2017, dated 2022)
